Read-outs that look alike come from different tables or passages of the source.

Assay [1] can be described thus: Castor oil induced diarrhea in the rat. To be noted: for Potency (relative to diphenoxylate hydrochloride): oral, diphenoxylate = 1.0. It is filed as in vivo, rat (adult Charles River male). The procedure: CASTOR OIL INDUCED DIARRHEA IN THE RAT
Adult Charles River male rats were fasted in community cages for 24 hours prior to the test, with free access to water. The compound was administered intragastrically (suspended on 0.5% methylcellulose) one hour prior to the administration of castor oil at the dose of 1.0 ml/rat intragastrically. The rats were then observed for the presence or absence of diarrhea, at hourly intervals for up to 8 hours past administration of castor oil. The median effective dose values at each hourly interval were calculated for the compound using the method of Berkson (1953). […] For example:
Comparative Oral Antidiarrheal Potency and Duration of 1-(3,3,3-triphenylpropyl)-4-phenyl-4-piperidinemethanol hydrochloride (a) to Diphenoxylate hydrochloride in the Rat Castor Oil Diarrhea Test

A short description of assay [2]: Analgesic effect in the mouse hot plate and tail clip tests. The class given is in vivo. The method, then:
(§1) The assessment of the analgesic effect of the instant compounds was conducted in the mouse hot plate and tail clip tests.
A mouse (adult male weighing 18-25 grams) is placed in a restraining cylinder on a hot plate with the temperature controlled at 55° ± 0.3° C. The reaction time of the mouse to lick a foot or jump is measured at 60, 40 and 20 minutes before and 30, 60, 90 and 120 minutes after administration of the test compound. The "normal" reaction time is measured as the median of the three pretreatment reaction times. A positive response consists of a reaction time greater than twice the normal time at any of the post treatment times. A dose of the test compound is considered active when 50 percent or more of the animals used show a positive response.
A special clip is applied to the base of the tail of the mouse (adult male weighing 18-25 grams) and the time for the animal to turn around to bite as it is measured. The sensitivity of each mouse is determined one-half hour prior to drug administration. Only those mice attempting to bite the clip are included in the experiment. The test compound is then administered intragastrically and the response to placement of the clip is determined at 30, 60, 90 and 120 minutes after treatment. A response is considered positive if the animal takes more than 2 times the pre-drug time to bite at the clip at any of these time intervals. […]

Assay [3] is described as follows: Mouse tail clip test (analgesia). The class given is in vivo. To be noted: at 100 and 30 mpk. The method, then: as §1
A special clip is applied to the base of the tail of the mouse (adult male weighing 18-25 grams) and the time for the animal to turn around to bite as it is measured. The sensitivity of each mouse is determined one-half hour prior to drug administration. Only those mice attempting to bite the clip are included in the experiment. The test compound is then administered intragastrically and the response to placement of the clip is determined at 30, 60, 90 and 120 minutes after treatment. A response is considered positive if the animal takes more than 2 times the pre-drug time to bite at the clip at any of these time intervals. A test compound is considered active when 50 percent or more of the animals used show a positive response.

Setting [4] is: Rat2, oral (intragastric), rat, 2 hours after castor oil, read-out: ED50.
The mark [5] stands for this setting: oral (intragastric), rat, 3 hours after castor oil, read-out: ED50.
Where [6] appears, read: oral (intragastric), rat, 4 hours after castor oil, read-out: ED50.
Where [7] appears, read: oral (intragastric), rat, 5 hours after castor oil, read-out: ED50.
The mark [8] stands for this setting: oral (intragastric), rat, 6 hours after castor oil, read-out: ED50.
[9] abbreviates: oral (intragastric), rat, 7 hours after castor oil, read-out: ED50.
Where [10] appears, read: oral (intragastric), rat, 8 hours after castor oil, read-out: ED50.

Consider `OCC1(c2ccccc2)CCN(CCC(c2ccccc2)(c2ccccc2)c2ccccc2)CC1` [1-(3,3,3-triphenylpropyl)-4-phenyl-4-piperidinemethanol], for which the “ability to inhibit gastrointestinal motility” value in assay [1] (intragastric, rat) is reported as “very active”. The analgesic effect result in assay [2] is “very little analgesic effect”.

Turning to `CCOC(=O)C1(c2ccccc2)CCN(CCC(C#N)(c2ccccc2)c2ccccc2)CC1` [Diphenoxylate, reference compound], the ED50 in assay [1] (setting [4]) worked out at 0.22 mg/kg; in assay [1] (setting [5]), 0.36 mg/kg; in assay [1] (setting [6]), 0.71 mg/kg; in assay [1] (setting [7]) it was 1.21 mg/kg; in assay [1] (setting [8]), 1.62 mg/kg; in assay [1] (setting [9]) it was 1.85 mg/kg. In addition, in assay [1] (setting [10]), the ED50 was 1.93 mg/kg.

For the compound `Cl.OCC1(c2ccccc2)CCN(CCC(c2ccccc2)(c2ccccc2)c2ccccc2)CC1` [(a), 1-(3,3,3-triphenylpropyl)-4-phenyl-4-piperidinemethanol hydrochloride], the ED50 in assay [1] (setting [4]) came to 0.14 mg/kg; in assay [1] (setting [5]), 0.18 mg/kg; in assay [1] (setting [6]), 0.24 mg/kg; in assay [1] (setting [7]), 0.28 mg/kg; in assay [1] (setting [8]), 0.28 mg/kg; in assay [1] (setting [9]), 0.28 mg/kg. The ED50 in assay [1] (setting [10]) was determined as 0.35 mg/kg. The “Potency (relative to diphenoxylate hydrochloride)” value in assay [1] (rat, 2 hours after castor oil) is 1.35; in assay [1] (rat, 3 hours after castor oil) it was 2.25; in assay [1] (rat, 4 hours after castor oil) it was 3.25; in assay [1] (rat, 5 hours after castor oil), 4.33; in assay [1] (rat, 6 hours after castor oil) it was 5.71; in assay [1] (rat, 7 hours after castor oil) it was 6.44. Besides, the “Potency (relative to diphenoxylate hydrochloride)” value in assay [1] (rat, 8 hours after castor oil) came to 5.42.

On to `CCOC(=O)C1(c2ccccc2)CCN(CCC(c2ccccc2)(c2ccccc2)c2ccccn2)CC1` [ethyl 1-[3,3-diphenyl-3-(2-pyridyl)propyl]-4-phenyl-4-piperidinecarboxylate], for which the “analgesia (mouse tail clip test)” value in assay [3] is on record as “weak analgesia”. Moreover, in assay [1] (Rattus norvegicus, po, 2 h, read-out: ED50 2 hrs. post castor oil), the ED50 was 0.04 mg/kg.

The ED50 is the dose at which the effect has come halfway, by size or by number of responders.

The values above are taken from patent US4072686A, “1-(3,3,3-Triarylalkyl)-4-phenyl-piperidinealkanols” (G. D. Searle & Co., priority 1976, dated 1978).
